Measured values: patent publication US20240246942A1, “KINASE INHIBITORS FOR THE TREATMENT OF NEURODEGENERATIVE DISEASES” (priority 2020, published 2024)

Experiments:
Experiment in all cases: biochemical
[1] = target: T1, panel of 374 wild-type kinases (Homo sapiens, UniProt Q9H4B4); details: read-out: % Enzyme Activity (relative to DMSO controls), kinase PLK3
T1 construct: purchased Reaction Biology Corporation

[2] = target: T2, panel of 374 wild-type kinases (Homo sapiens, UniProt O00444); details: read-out: % Enzyme Activity (relative to DMSO controls), kinase PLK4/SAK
T2 construct: purchased Reaction Biology Corporation
T2 sequence (O00444 1-970): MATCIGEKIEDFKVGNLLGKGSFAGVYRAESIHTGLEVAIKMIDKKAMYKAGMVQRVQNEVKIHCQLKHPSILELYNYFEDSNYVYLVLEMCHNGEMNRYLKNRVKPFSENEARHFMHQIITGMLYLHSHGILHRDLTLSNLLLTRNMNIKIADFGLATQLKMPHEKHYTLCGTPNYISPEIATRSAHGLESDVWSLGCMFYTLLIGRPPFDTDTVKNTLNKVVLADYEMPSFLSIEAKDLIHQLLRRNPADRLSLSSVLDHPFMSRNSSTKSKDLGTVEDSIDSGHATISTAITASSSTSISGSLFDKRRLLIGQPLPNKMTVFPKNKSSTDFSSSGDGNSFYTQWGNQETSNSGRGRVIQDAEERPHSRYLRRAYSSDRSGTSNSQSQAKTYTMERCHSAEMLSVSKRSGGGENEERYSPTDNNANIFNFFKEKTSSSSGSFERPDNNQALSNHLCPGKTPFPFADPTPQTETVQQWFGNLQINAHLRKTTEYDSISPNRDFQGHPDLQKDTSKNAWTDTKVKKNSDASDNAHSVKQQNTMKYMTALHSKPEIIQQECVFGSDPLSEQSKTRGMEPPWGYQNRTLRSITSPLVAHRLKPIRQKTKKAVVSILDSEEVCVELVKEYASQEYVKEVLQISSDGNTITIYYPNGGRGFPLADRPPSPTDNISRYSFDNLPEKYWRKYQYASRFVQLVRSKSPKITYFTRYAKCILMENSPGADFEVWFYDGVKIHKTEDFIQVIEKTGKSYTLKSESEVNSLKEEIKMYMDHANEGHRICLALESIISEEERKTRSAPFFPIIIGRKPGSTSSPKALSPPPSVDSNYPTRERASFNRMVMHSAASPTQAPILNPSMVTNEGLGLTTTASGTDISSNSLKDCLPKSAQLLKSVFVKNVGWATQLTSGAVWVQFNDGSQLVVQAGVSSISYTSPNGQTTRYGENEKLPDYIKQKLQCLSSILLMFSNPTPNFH

[3] = target: T3, panel of 374 wild-type kinases (Homo sapiens, UniProt Q86UE8); details: read-out: % Enzyme Activity (relative to DMSO controls), kinase TLK2
T3 construct: purchased Reaction Biology Corporation

[4] = target: T4, panel of 374 wild-type kinases (Homo sapiens, UniProt Q13237); details: read-out: % Enzyme Activity (relative to DMSO controls), kinase PKG2/PRKG2
T4 construct: purchased Reaction Biology Corporation
T4 sequence (Q13237 1-762): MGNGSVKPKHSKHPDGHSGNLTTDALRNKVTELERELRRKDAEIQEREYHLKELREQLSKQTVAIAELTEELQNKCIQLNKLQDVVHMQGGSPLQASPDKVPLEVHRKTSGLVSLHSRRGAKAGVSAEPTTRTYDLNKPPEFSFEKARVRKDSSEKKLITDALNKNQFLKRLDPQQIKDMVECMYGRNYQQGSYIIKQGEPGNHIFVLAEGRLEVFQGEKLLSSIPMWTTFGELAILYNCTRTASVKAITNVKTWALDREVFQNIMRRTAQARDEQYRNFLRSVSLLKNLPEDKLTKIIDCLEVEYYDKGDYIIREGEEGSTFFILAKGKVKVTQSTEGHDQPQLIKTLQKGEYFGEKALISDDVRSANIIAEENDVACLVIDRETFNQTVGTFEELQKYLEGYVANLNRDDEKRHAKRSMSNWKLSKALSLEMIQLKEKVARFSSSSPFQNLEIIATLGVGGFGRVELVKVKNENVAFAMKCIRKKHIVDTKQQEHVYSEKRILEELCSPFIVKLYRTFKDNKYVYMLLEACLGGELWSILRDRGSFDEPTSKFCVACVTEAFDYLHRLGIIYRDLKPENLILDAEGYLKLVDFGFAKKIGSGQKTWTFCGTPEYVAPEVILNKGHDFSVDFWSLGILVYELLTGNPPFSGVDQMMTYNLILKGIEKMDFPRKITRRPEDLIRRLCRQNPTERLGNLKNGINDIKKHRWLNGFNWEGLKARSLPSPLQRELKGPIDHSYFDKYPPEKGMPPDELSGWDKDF

[5] = target: T5, panel of 374 wild-type kinases (Homo sapiens, UniProt Q8IU85); details: read-out: % Enzyme Activity (relative to DMSO controls), CAMK1d
T5 construct: purchased Reaction Biology Corporation

[6] = target: T6, panel of 374 wild-type kinases (Homo sapiens, UniProt P08631); details: read-out: % Enzyme Activity (relative to DMSO controls), HCK
T6 construct: purchased Reaction Biology Corporation

[7] = target: T7, panel of 374 wild-type kinases (Homo sapiens, UniProt Q06187); details: read-out: % Enzyme Activity (relative to DMSO controls), BTK
T7 construct: purchased Reaction Biology Corporation

[8] = target: T8, panel of 374 wild-type kinases (Homo sapiens, UniProt P54764); details: read-out: % Enzyme Activity (relative to DMSO controls), EPHA4
T8 construct: purchased Reaction Biology Corporation

[9] = target: T9, panel of 374 wild-type kinases (Homo sapiens, UniProt P19784); details: CK2a2, read-out: % Enzyme Activity (relative to DMSO controls)
T9 construct: purchased Reaction Biology Corporation

[10] = target: T10, panel of 374 wild-type kinases (Homo sapiens, UniProt Q02779); details: read-out: % Enzyme Activity (relative to DMSO controls), MLK2/MAP3K10
T10 construct: purchased Reaction Biology Corporation

[11] = target: T11, panel of 374 wild-type kinases (Homo sapiens, UniProt Q5TCX8); details: read-out: % Enzyme Activity (relative to DMSO controls), MLK4
T11 construct: purchased Reaction Biology Corporation
T11 sequence (Q5TCX8 whole entry): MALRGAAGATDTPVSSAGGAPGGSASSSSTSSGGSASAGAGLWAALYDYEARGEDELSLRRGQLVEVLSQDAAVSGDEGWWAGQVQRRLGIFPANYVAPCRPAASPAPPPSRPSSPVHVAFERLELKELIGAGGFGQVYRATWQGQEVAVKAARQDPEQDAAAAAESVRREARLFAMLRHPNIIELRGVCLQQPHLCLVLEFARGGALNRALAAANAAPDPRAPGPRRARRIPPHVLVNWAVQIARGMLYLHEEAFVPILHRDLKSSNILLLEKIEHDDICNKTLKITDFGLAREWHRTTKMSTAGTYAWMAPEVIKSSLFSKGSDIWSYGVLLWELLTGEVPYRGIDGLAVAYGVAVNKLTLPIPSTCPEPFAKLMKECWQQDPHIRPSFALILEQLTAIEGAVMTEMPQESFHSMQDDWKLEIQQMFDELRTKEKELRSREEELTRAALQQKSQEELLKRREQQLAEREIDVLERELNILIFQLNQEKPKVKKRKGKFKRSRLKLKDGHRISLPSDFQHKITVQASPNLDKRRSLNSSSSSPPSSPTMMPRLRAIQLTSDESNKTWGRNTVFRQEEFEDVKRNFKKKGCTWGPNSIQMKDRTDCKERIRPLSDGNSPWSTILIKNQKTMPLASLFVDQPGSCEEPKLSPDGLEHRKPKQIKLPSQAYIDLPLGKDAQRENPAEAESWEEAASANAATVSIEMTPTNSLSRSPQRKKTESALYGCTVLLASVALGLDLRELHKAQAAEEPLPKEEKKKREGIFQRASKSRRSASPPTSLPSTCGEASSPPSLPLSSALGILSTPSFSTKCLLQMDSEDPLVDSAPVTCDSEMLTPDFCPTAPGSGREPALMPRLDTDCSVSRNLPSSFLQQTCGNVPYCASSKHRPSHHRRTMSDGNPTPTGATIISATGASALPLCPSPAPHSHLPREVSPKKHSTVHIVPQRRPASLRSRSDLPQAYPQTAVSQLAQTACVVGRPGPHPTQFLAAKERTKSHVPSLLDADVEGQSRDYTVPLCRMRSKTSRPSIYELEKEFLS

T8 sequence (P54764 20-986): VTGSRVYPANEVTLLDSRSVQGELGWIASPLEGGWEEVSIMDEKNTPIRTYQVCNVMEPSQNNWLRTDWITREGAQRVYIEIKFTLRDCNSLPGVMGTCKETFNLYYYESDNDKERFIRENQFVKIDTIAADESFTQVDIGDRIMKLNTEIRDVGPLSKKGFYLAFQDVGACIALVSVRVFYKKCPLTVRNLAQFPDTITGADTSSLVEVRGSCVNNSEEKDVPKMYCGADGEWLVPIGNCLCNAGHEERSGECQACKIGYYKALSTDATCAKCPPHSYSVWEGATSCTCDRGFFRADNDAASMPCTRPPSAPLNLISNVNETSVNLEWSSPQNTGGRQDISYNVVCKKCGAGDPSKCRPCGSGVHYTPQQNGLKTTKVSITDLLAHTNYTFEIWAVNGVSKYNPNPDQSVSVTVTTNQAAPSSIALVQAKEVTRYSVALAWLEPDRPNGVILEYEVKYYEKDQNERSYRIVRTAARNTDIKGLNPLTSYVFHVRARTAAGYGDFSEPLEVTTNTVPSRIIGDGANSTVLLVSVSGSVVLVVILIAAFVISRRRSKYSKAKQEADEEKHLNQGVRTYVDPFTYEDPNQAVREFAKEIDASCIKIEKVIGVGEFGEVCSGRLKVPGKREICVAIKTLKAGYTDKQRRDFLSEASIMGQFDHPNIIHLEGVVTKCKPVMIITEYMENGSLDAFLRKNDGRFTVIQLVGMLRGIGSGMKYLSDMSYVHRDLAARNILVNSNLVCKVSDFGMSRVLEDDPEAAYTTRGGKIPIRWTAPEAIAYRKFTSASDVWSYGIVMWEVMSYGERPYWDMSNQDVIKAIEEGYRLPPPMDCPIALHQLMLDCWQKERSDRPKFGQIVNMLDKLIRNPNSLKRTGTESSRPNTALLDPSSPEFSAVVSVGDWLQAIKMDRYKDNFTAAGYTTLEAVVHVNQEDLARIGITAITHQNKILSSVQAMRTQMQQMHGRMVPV
T5 sequence (Q8IU85 whole entry): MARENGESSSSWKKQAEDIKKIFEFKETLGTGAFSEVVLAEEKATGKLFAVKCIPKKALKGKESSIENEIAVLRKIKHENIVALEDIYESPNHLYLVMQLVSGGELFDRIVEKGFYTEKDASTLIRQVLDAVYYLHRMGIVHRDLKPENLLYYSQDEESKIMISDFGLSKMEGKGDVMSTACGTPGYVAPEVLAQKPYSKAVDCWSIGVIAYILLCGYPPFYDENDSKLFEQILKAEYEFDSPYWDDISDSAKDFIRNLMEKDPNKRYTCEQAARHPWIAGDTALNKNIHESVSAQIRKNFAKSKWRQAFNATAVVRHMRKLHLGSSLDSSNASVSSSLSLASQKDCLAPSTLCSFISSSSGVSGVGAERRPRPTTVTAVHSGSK
T9 sequence (P19784 whole entry): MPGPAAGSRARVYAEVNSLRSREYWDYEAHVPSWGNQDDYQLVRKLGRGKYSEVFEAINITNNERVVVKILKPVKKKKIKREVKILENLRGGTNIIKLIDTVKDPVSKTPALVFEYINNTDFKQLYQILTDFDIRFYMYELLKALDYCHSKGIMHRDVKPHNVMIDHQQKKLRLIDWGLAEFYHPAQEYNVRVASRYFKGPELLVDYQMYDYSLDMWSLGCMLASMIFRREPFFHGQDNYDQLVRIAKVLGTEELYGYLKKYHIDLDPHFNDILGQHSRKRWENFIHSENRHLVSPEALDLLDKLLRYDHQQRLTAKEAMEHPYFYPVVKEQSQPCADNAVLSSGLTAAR
T1 sequence (Q9H4B4 whole entry): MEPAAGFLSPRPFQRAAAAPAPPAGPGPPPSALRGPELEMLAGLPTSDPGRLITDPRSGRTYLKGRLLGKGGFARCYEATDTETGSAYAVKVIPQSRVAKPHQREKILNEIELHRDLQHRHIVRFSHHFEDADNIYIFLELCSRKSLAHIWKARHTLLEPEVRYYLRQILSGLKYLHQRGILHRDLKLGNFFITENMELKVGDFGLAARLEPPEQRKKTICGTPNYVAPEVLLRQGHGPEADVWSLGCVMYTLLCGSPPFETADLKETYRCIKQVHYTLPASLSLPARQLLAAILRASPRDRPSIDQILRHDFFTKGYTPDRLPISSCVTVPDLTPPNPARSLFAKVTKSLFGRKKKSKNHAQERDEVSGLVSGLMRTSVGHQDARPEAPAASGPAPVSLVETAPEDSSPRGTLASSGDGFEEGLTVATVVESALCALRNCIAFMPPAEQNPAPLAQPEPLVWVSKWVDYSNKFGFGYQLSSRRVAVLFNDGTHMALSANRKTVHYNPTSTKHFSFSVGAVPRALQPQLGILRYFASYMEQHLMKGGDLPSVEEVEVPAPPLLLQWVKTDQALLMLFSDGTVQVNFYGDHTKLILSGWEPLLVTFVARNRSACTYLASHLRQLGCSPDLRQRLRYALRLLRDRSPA
T3 sequence (Q86UE8 whole entry): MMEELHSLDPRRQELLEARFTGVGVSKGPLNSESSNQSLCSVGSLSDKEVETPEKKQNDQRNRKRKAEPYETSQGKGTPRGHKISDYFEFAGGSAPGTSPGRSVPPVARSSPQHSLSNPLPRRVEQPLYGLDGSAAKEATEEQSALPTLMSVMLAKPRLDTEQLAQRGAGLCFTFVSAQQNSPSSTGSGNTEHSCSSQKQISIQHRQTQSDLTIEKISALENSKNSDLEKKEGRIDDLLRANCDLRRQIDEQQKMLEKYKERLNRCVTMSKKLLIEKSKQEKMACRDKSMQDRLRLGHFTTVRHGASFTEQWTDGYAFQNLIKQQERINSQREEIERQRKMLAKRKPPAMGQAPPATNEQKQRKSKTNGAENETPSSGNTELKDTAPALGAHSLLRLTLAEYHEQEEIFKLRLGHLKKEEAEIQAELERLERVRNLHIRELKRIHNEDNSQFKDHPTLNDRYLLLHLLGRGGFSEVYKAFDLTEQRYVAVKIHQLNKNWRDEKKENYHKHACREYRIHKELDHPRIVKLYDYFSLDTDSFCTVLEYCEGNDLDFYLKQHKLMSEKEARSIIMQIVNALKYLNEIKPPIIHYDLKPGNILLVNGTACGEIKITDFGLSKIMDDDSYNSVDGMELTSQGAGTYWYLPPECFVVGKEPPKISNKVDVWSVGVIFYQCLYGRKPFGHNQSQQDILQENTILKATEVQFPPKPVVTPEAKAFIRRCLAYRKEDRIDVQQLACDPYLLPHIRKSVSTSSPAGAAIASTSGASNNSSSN
T7 sequence (Q06187 whole entry): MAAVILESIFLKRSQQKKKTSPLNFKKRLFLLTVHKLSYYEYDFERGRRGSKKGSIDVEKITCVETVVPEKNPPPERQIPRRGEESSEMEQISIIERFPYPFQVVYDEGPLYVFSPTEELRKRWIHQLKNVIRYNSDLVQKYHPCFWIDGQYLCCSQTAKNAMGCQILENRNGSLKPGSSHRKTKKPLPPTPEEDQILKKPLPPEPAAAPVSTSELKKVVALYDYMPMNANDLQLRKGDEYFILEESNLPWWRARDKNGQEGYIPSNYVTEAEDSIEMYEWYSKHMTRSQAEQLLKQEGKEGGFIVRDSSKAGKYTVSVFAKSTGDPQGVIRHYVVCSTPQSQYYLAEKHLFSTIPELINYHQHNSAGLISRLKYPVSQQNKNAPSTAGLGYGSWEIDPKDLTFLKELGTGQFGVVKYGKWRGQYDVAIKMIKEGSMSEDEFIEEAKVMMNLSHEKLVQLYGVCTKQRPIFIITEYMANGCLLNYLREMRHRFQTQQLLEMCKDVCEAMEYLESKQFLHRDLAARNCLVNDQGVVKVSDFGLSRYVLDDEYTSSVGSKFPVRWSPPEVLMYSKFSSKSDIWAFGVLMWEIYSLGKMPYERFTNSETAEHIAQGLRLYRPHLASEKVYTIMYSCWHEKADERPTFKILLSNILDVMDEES

| SMILES | remaining activity at 5 µM [1] | remaining activity at 5 µM [2] | remaining activity at 5 µM [3] | remaining activity at 5 µM [4] | remaining activity at 5 µM [5] | remaining activity at 5 µM [6] | remaining activity at 5 µM [7] | remaining activity at 5 µM [8] | remaining activity at 5 µM [9] | remaining activity at 5 µM [10] | remaining activity at 5 µM [11] | also measured |
| --- | --- | --- | --- | --- | --- | --- | --- | --- | --- | --- | --- | --- |
| O=C(Nc1cnn(-c2csc(C(=O)NC3COC3)c2)c1)Nc1ccccc1Cl [Compound 17, 4-(4-(3-(2-chlorophenyl)ureido)-1H-pyrazol-1-yl)-N-(oxetan-3-yl)thiophene-2-carboxamide] | 96.1% | 88.2% | 99.1% | 101% | 104% | 94% | 92.6% | 100% | 97.3% | 98.5% | 93.2% |  |
| O=C(Nc1cnn(-c2csc(C(=O)NC3COC3)c2)c1)Nc1c(F)cccc1Cl [Compound 25, 4-(4-(3-(2-chloro-6-fluorophenyl)ureido)-1H-pyrazol-1-yl)-N-(oxetan-3-yl)thiophene-2-carboxamide] | 96% | 84.3% | 109% | 101% | 99.6% | 91.3% | 89.3% | 89.1% | 96.6% | 94.3% | 94.3% |  |
| Cc1sc(C(=O)NC2COC2)cc1-n1cc(NC(=O)Nc2c(F)cccc2Cl)cn1 [Compound 27, 4-(4-(3-(2-chloro-6-fluorophenyl)ureido)-1H-pyrazol-1-yl)-5-methyl-N-(oxetan-3-yl)thiophene-2-carboxamide] |  |  |  |  |  |  |  |  |  |  |  | remaining activity at 10 µM ([1]; 10 uM): 102%; remaining activity at 10 µM ([2]; 10 uM): 100%; remaining activity at 10 µM ([3]; 10 uM): 97.2%; remaining activity at 10 µM ([4]; 10 uM): 100%; remaining activity at 10 µM ([5]; 10 uM): 105%; remaining activity at 10 µM ([6]; 10 uM): 95%; remaining activity at 10 µM ([7]; 10 uM): 87.6%; remaining activity at 10 µM ([8]; 10 uM): 116%; remaining activity at 10 µM ([9]; 10 uM): 95.5%; remaining activity at 10 µM ([10]; 10 uM): 90.8%; remaining activity at 10 µM ([11]; 10 uM): 85.2% |
